Among the data in PMC12467433, “Isoniazid-Derived Hydrazones Featuring Piperazine/Piperidine Rings: Design, Synthesis, and Investigation of Antitubercular Activity” (Biomolecules, 2025) are MIC values, retold here.

The subject of experiment [1] is INH-resistant Mtb clinical isolate with inhA promoter mutation. The format is cell-based, Mycobacterium tuberculosis.
Experiment [2] concerns INH-resistant Mtb clinical isolate with katG S315T mutation. The format is cell-based, Mycobacterium tuberculosis.

Each structure is given as a SMILES string. Values after ≈ are worked out from the molar mass of the structure shown.

One may read the MIC as the least concentration at which growth counts as inhibited. Turning to `NNC(=O)c1ccncc1` [INH, isonicotinic acid hydrazide, reference compound], the MIC in experiment [1] came to 1.56 µM (≈ 0.214 µg/mL); in experiment [2] it was 6.25 µM (≈ 0.857 µg/mL).
With `COc1ccc(N2CCN(c3ccc(C=NNC(=O)c4ccncc4)cc3)CC2)cc1` [IP7, N′-(4-(4-(4-Methoxyphenyl)piperazin-1-yl)benzylidene)isonicotinohydrazide], the MIC is 25 µM (≈ 10.4 µg/mL) in experiment [1] and 100 µM (≈ 41.5 µg/mL) in experiment [2].
`O=C(NN=Cc1ccc(N2CCN(c3ccccn3)CC2)cc1)c1ccncc1` [IP8, N′-(4-(4-(Pyridin-2-yl)piperazin-1-yl)benzylidene)isonicotinohydrazide]: the MIC in experiment [1] is 1.56 µM (≈ 0.603 µg/mL); in experiment [2] it was 50 µM (≈ 19.3 µg/mL).
Turning to `O=C(NN=Cc1ccc(N2CCN(c3ncccn3)CC2)cc1)c1ccncc1` [IP9, N′-(4-(4-(Pyrimidin-2-yl)piperazin-1-yl)benzylidene)isonicotinohydrazide], the MIC in experiment [1] amounted to 3.12 µM (≈ 1.21 µg/mL); in experiment [2], 25 µM (≈ 9.69 µg/mL).
On to `CN1CCN(c2ccc(C=NNC(=O)c3ccncc3)cc2)CC1` [IP10, N′-(4-(4-Methylpiperazin-1-yl)benzylidene)isonicotinohydrazide], for which the MIC in experiment [1] amounted to 1.56 µM (≈ 0.505 µg/mL); in experiment [2], 25 µM (≈ 8.09 µg/mL).
In the same order, the values of `O=C(NN=Cc1ccc(N2CCN(C3CCCCC3)CC2)cc1)c1ccncc1` [IP11, N′-(4-(4-Cyclohexylpiperazin-1-yl)benzylidene)isonicotinohydrazide] are 0.78 µM (≈ 0.305 µg/mL) and 12.5 µM (≈ 4.89 µg/mL).
In the same order, the values of `CCOC(=O)C1CCN(c2ccc(C=NNC(=O)c3ccncc3)cc2)CC1` [IP12, Ethyl 1-(4-((2-isonicotinoylhydrazono)methyl)phenyl)piperidine-4-carboxylate] are 1.56 µM (≈ 0.593 µg/mL) and 25 µM (≈ 9.51 µg/mL).
For `NC(=O)C1CCN(c2ccc(C=NNC(=O)c3ccncc3)cc2)CC1` [IP13, 1-(4-((2-Isonicotinoylhydrazono)methyl)phenyl)piperidine-4-carboxamide] the same measures were 1.56 µM (≈ 0.548 µg/mL) and 50 µM (≈ 17.6 µg/mL).
